Assay [1] has as its system KB-8-5 (MDR1+). Kind of assay: Cell survival assay (SRB), KB-8-5 (MDR1+). The following applies: for IC50: Homo sapiens, MDR1, read-out: In vitro IC50 (nM) KB85.
For assay [2], the system named is KB-V1 (MDR1++). Kind of assay: Cell survival assay (SRB), KB-V1 (MDR1++). Conditions: for IC50: Homo sapiens, read-out: In vitro IC50 (nM) KBV1.
The subject of assay [3] is KB-3-1. The assay is described as follows: Cell survival assay (SRB), KB-3-1. Type of assay: cell-based, human. The following applies: Homo sapiens. The essentials: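 Step 1: add serial compound dilutions to cells in duplicate. Step 2: incubate 3 days. Step 3: fix in 10% TCA for 1 hr at 4 °C, stain with 0.04% SRB for 10 min, wash in 1% acetic acid, solubilise in 10 mM Trizma Base, measure absorbance and derive the 50%-growth-inhibition concentration.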

The mark [4] stands for this setting: KB 3-1, KB-3-1 cells (paclitaxel-sensitive parent), read-out: In vitro IC50 (nM) KB-3-1.

We go through 17 compounds from US20040121965A1, “Method of treating resistant tumors” (Wyeth Holdings Corporation, priority 2002, published 2004).

The structures appear in SMILES notation. Like-named read-outs stand apart in the source and are kept apart here. Some results are limits rather than exact numbers.

In the case of `CN[C@H](C(=O)N[C@H](C(=O)N(C)[C@H](/C=C(\C)C(=O)O)C(C)C)C(C)(C)C)C(C)(C)c1ccccc1OC` [Example 55, 2-Methoxy-N,β,β-trimethyl-L-phenylalanyl-N^1-[(1S,2E)-3-carboxy-1-isopropyl-2-butenyl]-N^1,3-dimethyl-L-valinamide], in assay [1], the “Ratio KB85/KB” value was 2.6 and the IC50 (usually the concentration that inhibits the measured activity by half) turned out to be 4.4 nM. Besides, in assay [2], the “Ratio KBV1/KB” value was 112.1 and the IC50 amounted to 190 nM. In assay [3] (setting [4]), the concentration for half-maximal inhibition (IC50) was 1.7 nM.
As to `CN[C@H](C(=O)N[C@H](C(=O)N(C)[C@H](/C=C(\C)C(=O)O)C(C)C)C(C)(C)C)C(C)(C)c1ccccc1C` [Example 35, N,β,β,2-Tetramethyl-L-phenylalanyl-N^1-[(1S,2E)-3-carboxy-1-isopropyl-2-butenyl]-N^1,3-dimethyl-L-valinamide], in assay [1], the “Ratio KB85/KB” value was 2.0 and the IC50 stood at 1.8 nM. Further, in assay [2], the “Ratio KBV1/KB” value is on record as 61.6 and the IC50 turned out to be 56.2 nM. Further, the IC50 in assay [3] (setting [4]) was determined as 0.912 nM.
Regarding `CN[C@H](C(=O)N[C@H](C(=O)N[C@H](/C=C(\C)C(=O)O)C(C)C)C(C)(C)C)C(C)(C)c1ccccc1.O=C(O)C(F)(F)F` [Example 101, N,β,β-trimethyl-L-phenylalanyl-N^1-[(1S,2E)-3-carboxy-1-isopropylbut-2-enyl]-3-methyl-L-valinamide Trifluoroacetic Acid], in assay [1], the “Ratio KB85/KB” value is given as 3.2 and the IC50 was 139 nM. In assay [2], the “Ratio KBV1/KB” value turned out to be 69.6 and the half-maximal inhibitory concentration (IC50) was at least 3000 nM. Further, in assay [3] (setting [4]), the IC50 came to 43.1 nM.
Taken in the same sequence, the figures for `CN[C@H](C(=O)N[C@@H](CC(C)C)C(=O)N(C)[C@H](/C=C(\C)C(=O)O)C(C)C)C(C)(C)c1ccccc1.O=C(O)C(F)(F)F` [Example 96, N,β,β-trimethyl-L-phenylalanyl-N^1-[(1S,2E)-3-carboxy-1-isopropylbut-2-enyl]-N^1-methyl-L-leucinamide Trifluoroacetic Acid] were 1.6, 30 nM, 76.1, 1440 nM and 19 nM.
Taken in the same sequence, the figures for `CN[C@H](C(=O)N[C@H](C(=O)N(C)[C@H](/C=C(\C)C(=O)NCCC#N)C(C)C)C(C)(C)C)C(C)(C)c1ccccc1` [Example 109, N,β,β-trimethyl-L-phenylalanyl-N^1-{(1S,2E)-4-[(2-cyanoethyl)amino]-1-isopropyl-3-methyl-4-oxo-2-butenyl}-N^1,3-dimethyl-L-valinamide] were 3.4, 435 nM, 23.3, at least 3000 nM and 129 nM.
Consider `CN[C@H](C(=O)N[C@H](C(=O)N(C)[C@H](/C=C(\C)C(=O)O)C(C)C)C(C)(C)C)C(C)(C)c1cccc(-c2ccccc2)c1` [Example 39, 3-phenyl-N,β,β-trimethyl-L-phenylalanyl-N^1-[(1S,2E)-3-carboxy-1-isopropylbut-2-enyl]-N^1,3-dimethyl-L-valinamide], for which the “Ratio KB85/KB” value in assay [1] is reported as 2.8. The IC50 is 5.4 nM in assay [1], 149 nM in assay [2] and 1.9 nM in assay [3] (setting [4]). For the same compound, the “Ratio KBV1/KB” value in assay [2] came out at 78.4.
In the case of `CN[C@H](C(=O)N[C@@H](Cc1ccccc1)C(=O)N(C)[C@H](/C=C(\C)C(=O)O)C(C)C)C(C)(C)c1ccccc1` [Example 137, (E,4S)-2,5-dimethyl4-[methyl((2S)-2-{[(2S)-3-methyl-2-(methylamino)-3-phenylbutanoyl]amino}-3-phenylpropanoyl)amino]-2-hexenoic Acid], the “Ratio KB85/KB” value in assay [1] came out at 1.7. Further, the IC50 was 1580 nM in assay [1], at least 3000 nM in assay [2] and 934 nM in assay [3] (setting [4]). Besides, in assay [2], the “Ratio KBV1/KB” value is on record as 3.2.
Taken in the same sequence, the figures for `CN[C@H](C(=O)N[C@H](C(=O)N(C)[C@H](/C=C(\C)C(=O)O)C(C)C)C(C)(C)S(C)(=O)=O)C(C)(C)c1ccccc1` [Example 81, N,β,β-trimethyl-L-phenylalanyl-N^1-[(1S,2E)-3-carboxy-1-isopropyl-2-butenyl]-N^1-methyl-3-(methylsulfonyl)-L-valinamide] were 3.3, 589 nM, at least 3000 nM, 178 nM and 16.9.
Consider `CN[C@H](C(=O)N[C@H](C(=O)N(C)[C@H](/C=C(/C)C(=O)O)C(C)C)C(C)(C)C)C(C)(C)c1ccccc1` [Example 117, N,β,β-trimethyl-L-phenylalanyl-N^1-[(1S,2Z)-3-carboxy-1-isopropyl-2-butenyl]-N^1,3-dimethyl-L-valinamide], for which, in assay [1], the “Ratio KB85/KB” value was determined as 2.1 and the IC50 was 58 nM. Moreover, in assay [2], the “Ratio KBV1/KB” value is reported as 93.9 and the half-inhibitory concentration (IC50) came to 2630 nM. For the same compound, the IC50 in assay [3] (KB 3-1, read-out: In vitro IC50 (nM) KB-3-1) came out at 28 nM.
As for `CCCC/C(=C\[C@@H](NC(=O)[C@@H](NC(=O)[C@@H](NC)C(C)(C)c1ccccc1)C(C)(C)C)C(C)C)C(=O)O` [Example 77, (E,4S)-2-Butyl-4-[((2S)-3,3-dimethyl-2-{[(2S)-3-methyl-2-(methylamino)-3-phenylbutanoyl]amino}butanoyl)amino]-5-methyl-2-hexenoic Acid], in assay [1], the “Ratio KB85/KB” value came to 3.0. The IC50 is 1740 nM in assay [1], at least 3000 nM in assay [2] and 575 nM in assay [3] (setting [4]). The “Ratio KBV1/KB” value in assay [2] was determined as 5.2.
With `C/C(=C\[C@H](C(C)C)N(C)C(=O)[C@@H](NC(=O)[C@@H](NCCO)C(C)(C)c1ccccc1)C(C)(C)C)C(=O)O` [Example 153, N-(2-hydroxyethyl)-β,β-dimethyl-L-phenylalanyl-N^1-[(1S,2E)-3-carboxy-1-isopropylbut-2-enyl]-N^1,3-dimethyl-L-valinamide], in assay [1], the “Ratio KB85/KB” value came to 3.4 and the IC50 was found to be 616 nM. In assay [2], the “Ratio KBV1/KB” value is recorded as 16.4 and the IC50 was above 3000 nM. Also, in assay [3] (setting [4]), the concentration for half-maximal inhibition (IC50) was determined as 183 nM.
The corresponding values for `CCOC(=O)/C(C)=C/[C@H](C(C)C)N(C)C(=O)[C@@H](NC(=O)[C@@H](NC)C(C)(C)c1ccc(C(C)(C)C)cc1)C(C)(C)C` [Example 29, 4-tert-Butyl-N,β,β-trimethylphenylalanyl-N^1-[(1S,2E)-4-ethoxy-1-isopropyl-3-methyl-4-oxo-2-butenyl]-N^1,3-dimethyl-L-valinamide] are 10.7, 380 nM, 84.7, at least 3000 nM and 35.4 nM.
The corresponding values for `CCOC(=O)/C(C)=C/[C@H](C(C)C)N(C)C(=O)/C(C)=C/[C@H](C(C)C)N(C)C(=O)[C@@H](NC(=O)[C@@H](NC)C(C)(C)c1ccccc1)C(C)(C)C` [Example 113, N,β,β-trimethyl-L-phenylalanyl-N^1-{(1S,2E)-4-[[(1S,2E)-4-ethoxy-1-isopropyl-3-methyl-4-oxobut-2-enyl](methyl)amino]-1-isopropyl-3-methyl-4-oxobut-2-enyl}-N^1,3-dimethyl-L-valinamide] are 1.9, 34 nM, 32.3, 582 nM and 18 nM.
Take `CCCCCC(C)(C)[C@@H](NC)C(=O)N[C@H](C(=O)N(C)[C@H](/C=C(\C)C(=O)O)C(C)C)C(C)(C)C` [Example 51, (2E,4S)-4-[((2S)-2-{[(2R)-3,3-dimethyl-2-(methylamino)octanoyl]amino}-3,3-dimethylbutanoyl)(methyl)amino]-2,5-dimethyl-2-hexenoic Acid]: in assay [1], the “Ratio KB85/KB” value stood at 1.6 and the IC50 is 363 nM. In assay [2], the “Ratio KBV1/KB” value stood at 13.4 and the IC50 was at least 3000 nM. Besides, the IC50 in assay [3] (setting [4]) was determined as 224 nM.
Take `CCOC(=O)/C(C)=C/[C@H](C(C)C)N(C)C(=O)[C@@H](NC(=O)[C@H](NC)C(C)(C)c1ccccc1)C(C)(C)C` [Example 135, Ethyl (E,4S)-4-[((2S)-3,3-dimethyl-2-{[(2R)-3-methyl-2-(methylamino)-3-phenylbutanoyl]amino}butanoyl)(methyl)amino]-2,5-dimethyl-2-hexenoate]: the “Ratio KB85/KB” value in assay [1] is 2.3. Moreover, the 50% inhibitory concentration (IC50) in assay [1] turned out to be 2090 nM; in assay [2], 2640 nM; in assay [3] (setting [4]) it was 909 nM. Further, the “Ratio KBV1/KB” value in assay [2] stood at 2.9.
The corresponding values for `CCOC(=O)/C(C)=C/[C@H](C(C)C)N(C)C(=O)[C@@H](NC(=O)[C@@H](NC)C(C)(C)c1cc(C)cc(C)c1)C(C)(C)C` [Example 16a, N,β,β,3,5-Pentamethyl-L-phenylalanyl-N^1-[(1S,2E)-4-ethoxy-1-isopropyl-3-methyl-4-oxo-2-butenyl]-N^1,3-dimethyl-L-valinamide] are 20.0, 302 nM, 1820 nM, 15.1 nM and 120.5.
Taken in the same sequence, the figures for `CCOC(=O)/C(C)=C/[C@H](C(C)C)N(C)C(=O)[C@@H](NC(=O)[C@@H](NC)C(C)(C)c1cccc(Cl)c1)C(C)(C)C` [Example 1a, 3-Chloro-N,β,β-trimethyl-L-phenylalanyl-N^1-[(1S,2E)4-ethoxy-1-isopropyl-3-methyl-4-oxo-2-butenyl]-N^1,3-dimethyl-L-valinamide] were 3.1, 1740 nM, at least 3000 nM, 562 nM and 5.3.
